Data reported in PMC9102017, “A Structure—Activity Relationship Study of the Inhibition of α-Amylase by Benzoic Acid and Its Derivatives” (Nutrients, 2022).
Where “and” joins values, the source holds several entries; their conditions need not be identical. Equal values may be shown once. Read-outs that look alike come from different tables or passages of the source.

What was measured:
[1] = target: T1, Porcine pancreatic α-amylase (Sus scrofa, UniProt P00690); assay: In vitro α-amylase inhibition assay (starch/DNS, absorbance at 540 nm); assay type: biochemical; settings: for IC50: 0.2 M potassium phosphate buffer pH 6.8, 37 °C, mean ± SD, triplicate, read-out: IC50 Values against α-Amylase (converted); for inhibited α-amylase more than the analogue without the 2-hydroxyl group: compared with 4-hydroxybenzoic acid (Group 1) or 3,4-dihydroxybenzoic acid (Group 2), Figure 1
T1 construct: purchased Sigma-Aldrich Chemical Co. (St. Louis, MO, USA) A3176
T1 sequence (P00690 16-511): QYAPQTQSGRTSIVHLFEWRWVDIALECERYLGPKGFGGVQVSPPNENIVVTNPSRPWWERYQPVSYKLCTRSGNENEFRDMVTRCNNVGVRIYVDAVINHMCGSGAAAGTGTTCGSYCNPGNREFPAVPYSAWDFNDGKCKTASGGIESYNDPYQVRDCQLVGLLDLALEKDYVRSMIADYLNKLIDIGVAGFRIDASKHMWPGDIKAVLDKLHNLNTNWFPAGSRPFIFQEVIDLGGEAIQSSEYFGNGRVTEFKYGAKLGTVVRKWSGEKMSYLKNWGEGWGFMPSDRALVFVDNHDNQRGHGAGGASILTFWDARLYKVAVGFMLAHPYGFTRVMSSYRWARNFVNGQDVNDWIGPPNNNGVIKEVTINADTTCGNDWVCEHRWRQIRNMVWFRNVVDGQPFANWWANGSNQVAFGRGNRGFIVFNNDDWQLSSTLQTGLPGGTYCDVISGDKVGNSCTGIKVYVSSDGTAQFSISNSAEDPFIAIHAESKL
Method: The α-amylase inhibition assay was adapted from Phan et al. with slight modifications. In order to simulate the small intestine conditions, a buffer pH of 6.8 and an incubation temperature of 37 °C were used. Porcine pancreatic α-amylase was dissolved in 0.2 M potassium phosphate buffer (pH 6.8). Phenolic acid solutions were prepared in 80% DMSO. […] An aliquot of 50 μL of phenolic acid solution (10, 20, 30, 40 and 50 mM) was mixed with 400 μL of 0.2 M potassium phosphate buffer (pH 6.8 with 7 mM NaCl) in a 2 mL tube. After adding 100 μL of the enzyme solution (0.5 unit/mL), the tube was incubated at 37 °C for 5 min. Subsequently, 450 μL of the cooked soluble starch solution (5 mg/mL) was added to initiate the reaction at 37 °C for 20 min, followed by the addition of 500 μL of DNS reagent, and then the tubes were boiled for 15 min at 100 °C to inactivate the enzyme. A total of 200 μL of the reaction solution was transferred to a 96-well plate and the absorbance was measured at 540 nm using a microplate reader (Tecan Infinite 200 PRO; Tecan, Männedorf, Zürich, Switzerland). All of the samples were prepared and measured in triplicate. The inhibition rate was calculated using the following formula: (1) Inhibition(%)={1−A[sample]−A[blank]/A[control+]−A[control−]}×100 where:
A [control+] is absorbance at 100% enzyme activity (buffer with starch and enzyme);
A [control−] is starch background absorbance (buffer and starch without enzyme);
A [sample] is test sample absorbance (buffer with enzyme, starch and inhibitor);
A [blank] is inhibitor and starch background absorbance (a test sample without enzyme).
The inhibition rates were plotted against the logarithmic values of six concentrations of the test inhibitor and a non-linear regression analysis was employed to generate a dose-response curve and calculate the IC50 values (mM and mg/mL).

α-amylase = settings: cited from earlier work
[2] = lower buffer concentration (0.02 M) than in this study, read-out: IC50 previously reported
[3] = recent studies, read-out: IC50 for α-amylase

Molecule Cc1cc(O)ccc1C(=O)O [Compound 9, 4-Hydroxy-2-methylbenzoic acid] has an IC50 [1] of 23.4 mM.
In the case of O=C(O)c1cc(O)c(O)c(O)c1 [Compound 7, 3,4,5-Trihydroxybenzoic acid], the IC50 [1] is listed as 26.1 mM, the IC50 (α-amylase; [2]) is listed as 7.46 ± 0.24 mM and the IC50 (α-amylase; [3]) is listed as 1.25 mM.
Work on COc1cc(O)ccc1C(=O)O [Compound 14, 4-Hydroxy-2-methoxybenzoic acid] yielded an IC50 [1] of 48.9 mM.
For COc1cc(C(=O)O)cc(OC)c1O [Compound 17, 4-Hydroxy-3,5-dimethoxybenzoic acid], the IC50 [1] is given as 32.2 mM and the IC50 (α-amylase; [3]) is given as 44.8 mM.
In the case of COc1ccc(C(=O)O)cc1 [Compound 13, 4-Methoxybenzoic acid], the IC50 [1] is reported as 44.2 mM and 44.1 mM.
Work on O=C(O)c1c(O)cc(O)cc1O [Compound 6, 2,4,6-Trihydroxybenzoic acid] yielded an IC50 [1] of 20.6 mM.
In the case of O=C(O)c1cc(O)ccc1O [2,5-dihydroxybenzoic acid, reference compound], the IC50 (α-amylase; [3]) is given as 0.298 mM.
For O=C(O)c1ccccc1 [Compound 1, Benzoic acid], the IC50 [1] was 45.2 mM.
In the case of O=C(O)c1ccc(O)c(O)c1O [Compound 5, 2,3,4-Trihydroxybenzoic acid], the IC50 [1] is given as 17.3 mM, the “inhibited α-amylase more than the analogue without the 2-hydroxyl group” value [1] is given as 46.56% and the IC50 (α-amylase; [3]) is given as 33.3 mM.
For Cc1cc(O)cc(O)c1C(=O)O [Compound 12, 2,4-Dihydroxy-6-methylbenzoic acid], the IC50 [1] was 18.1 mM.
In the case of O=C(O)c1ccc(O)cc1O [Compound 3, 2,4-Dihydroxybenzoic acid], the IC50 [1] is reported as 19.3 mM and the “inhibited α-amylase more than the analogue without the 2-hydroxyl group” value [1] is reported as 33.31%.
For O=C(O)c1ccc(O)c(O)c1 [Compound 4, 3,4-Dihydroxybenzoic acid], the IC50 [1] is listed as 25.4 mM and the IC50 (α-amylase; [2]) is listed as 11.5 ± 0.45 mM.
In the case of COc1cc(C(=O)O)ccc1O [Compound 15, 4-Hydroxy-3-methoxybenzoic acid], the IC50 [1] is given as 24.4 mM and the IC50 (α-amylase; [3]) is given as 27.9 mM.
In the case of COc1cc(C(=O)O)cc(O)c1O [Compound 16, 3,4-Dihydroxy-5-methoxybenzoic acid], the IC50 [1] is reported as 37.8 mM.
Cc1cc(C(=O)O)ccc1O [Compound 10, 4-Hydroxy-3-methylbenzoic acid] showed an IC50 [1] of 28.6 mM.
Cc1cc(C(=O)O)cc(C)c1O [Compound 11, 4-Hydroxy-3,5-dimethylbenzoic acid] showed an IC50 [1] of 26 mM.
Cc1ccc(C(=O)O)cc1 [Compound 8, 4-Methylbenzoic acid] showed an IC50 [1] of 52.3 mM.
For O=C(O)c1ccc(O)cc1 [Compound 2, 4-Hydroxybenzoic acid], the IC50 [1] was 25.7 mM.
